Key:
[1] = tested on: HeLa; assay: cells; type: functional, cell-based; settings: Homo sapiens, 72 h
[2] = tested on: HEL; assay: cells; type: functional, cell-based; settings: Homo sapiens, 72 h
[3] = tested on: K562; assay: cells; type: functional, cell-based; settings: Homo sapiens, K562, 72 h
[4] = tested on: PC-3; assay: cells; type: functional, cell-based; settings: Homo sapiens, PC-3, 72 h
[5] = tested on: MCF7; assay: cells; type: functional, cell-based; settings: Homo sapiens, MCF7, 72 h
[6] = tested on: HL-60; assay: cells; type: functional, cell-based; settings: Homo sapiens, HL-60, 72 h
[7] = tested on: A549; assay: cells; type: functional, cell-based; settings: Homo sapiens, A549, 72 h
[8] = biological target: Histone deacetylase 7 (Homo sapiens, UniProt Q8WUI4)
[9] = biological target: Muscle, skeletal receptor tyrosine-protein kinase (Homo sapiens) (UniProt O15146); settings: dose 500.0 nM
[10] = in vivo; settings: Sprague-Dawley, rat, iv, 3 mg/kg
[11] = in vivo; settings: Sprague-Dawley, rat, iv, 3 mg/kg; remark: listed apart in the source
[12] = in vivo; settings: Sprague-Dawley, rat, po, 15 mg/kg
[13] = in vivo; settings: Sprague-Dawley, rat, po, 15 mg/kg; remark: listed apart in the source
[14] = biological target: T1, Tyrosine-protein kinase JAK1 (Homo sapiens, UniProt P23458); settings: dose 500.0 nM
[15] = in vivo; settings: Sprague-Dawley, rat, iv, 3 mg/kg; remark: listed apart in the source
[16] = biological target: Protein deacetylase HDAC6 (Homo sapiens, UniProt Q9UBN7)
[17] = biological target: Tyrosine-protein kinase JAK3 (Homo sapiens, UniProt P52333)
[18] = in vitro; settings: Sprague-Dawley, rat, plasma
[19] = in vivo; settings: Sprague-Dawley, rat, po, 15 mg/kg; remark: listed apart in the source
[20] = biological target: Activated CDC42 kinase 1 (Homo sapiens) (UniProt Q07912); settings: dose 500.0 nM
[21] = biological target: Histone deacetylase 2 (Homo sapiens, UniProt Q92769)
[22] = biological target: Histone deacetylase 1 (Homo sapiens, UniProt Q13547); type: cell-based, HeLa
[23] = biological target: Non-receptor tyrosine-protein kinase TYK2 (Homo sapiens, UniProt P29597)
[24] = rat, in vivo, po, 15 mg/kg, 24 h
[25] = biological target: Histone deacetylase; type: cell-based, Homo sapiens; settings: hela
[26] = in vivo; settings: Sprague-Dawley, rat, po, 15 mg/kg; remark: listed apart in the source
[27] = biological target: Histone deacetylase 9 (Homo sapiens, UniProt Q9UKV0)
[28] = in vivo; settings: Sprague-Dawley, rat, po, 15 mg/kg; remark: listed apart in the source
[29] = biological target: Histone deacetylase 5 (Homo sapiens, UniProt Q9UQL6)
[30] = biological target: Histone deacetylase 3 (Homo sapiens, UniProt O15379)
[31] = biological target: Polyamine deacetylase HDAC10 (Homo sapiens, UniProt Q969S8)
[32] = in vivo; settings: Sprague-Dawley, rat, po, 15 mg/kg; remark: listed apart in the source
[33] = biological target: Histone deacetylase 11 (Homo sapiens, UniProt Q96DB2)
[34] = in vivo; settings: Sprague-Dawley, rat, iv, 3 mg/kg; remark: listed apart in the source
[35] = biological target: T1, Tyrosine-protein kinase JAK1
[36] = in vivo; settings: Sprague-Dawley, rat, iv, 3 mg/kg; remark: listed apart in the source
[37] = biological target: Histone deacetylase 8 (Homo sapiens, UniProt Q9BY41)
[38] = biological target: Tyrosine-protein kinase Fyn (Homo sapiens) (UniProt P06241); settings: dose 500.0 nM
[39] = biological target: Histone deacetylase 4 (Homo sapiens, UniProt P56524)
[40] = in vitro; settings: Sprague-Dawley, rat, plasma; remark: listed apart in the source
[41] = in vivo; settings: Sprague-Dawley, rat, po, 15 mg/kg; remark: listed apart in the source
[42] = biological target: T2, Tyrosine-protein kinase JAK2 (Homo sapiens, UniProt O60674); settings: dose 500.0 nM
[43] = biological target: T2, Tyrosine-protein kinase JAK2

T2 sequence (O60674 whole entry): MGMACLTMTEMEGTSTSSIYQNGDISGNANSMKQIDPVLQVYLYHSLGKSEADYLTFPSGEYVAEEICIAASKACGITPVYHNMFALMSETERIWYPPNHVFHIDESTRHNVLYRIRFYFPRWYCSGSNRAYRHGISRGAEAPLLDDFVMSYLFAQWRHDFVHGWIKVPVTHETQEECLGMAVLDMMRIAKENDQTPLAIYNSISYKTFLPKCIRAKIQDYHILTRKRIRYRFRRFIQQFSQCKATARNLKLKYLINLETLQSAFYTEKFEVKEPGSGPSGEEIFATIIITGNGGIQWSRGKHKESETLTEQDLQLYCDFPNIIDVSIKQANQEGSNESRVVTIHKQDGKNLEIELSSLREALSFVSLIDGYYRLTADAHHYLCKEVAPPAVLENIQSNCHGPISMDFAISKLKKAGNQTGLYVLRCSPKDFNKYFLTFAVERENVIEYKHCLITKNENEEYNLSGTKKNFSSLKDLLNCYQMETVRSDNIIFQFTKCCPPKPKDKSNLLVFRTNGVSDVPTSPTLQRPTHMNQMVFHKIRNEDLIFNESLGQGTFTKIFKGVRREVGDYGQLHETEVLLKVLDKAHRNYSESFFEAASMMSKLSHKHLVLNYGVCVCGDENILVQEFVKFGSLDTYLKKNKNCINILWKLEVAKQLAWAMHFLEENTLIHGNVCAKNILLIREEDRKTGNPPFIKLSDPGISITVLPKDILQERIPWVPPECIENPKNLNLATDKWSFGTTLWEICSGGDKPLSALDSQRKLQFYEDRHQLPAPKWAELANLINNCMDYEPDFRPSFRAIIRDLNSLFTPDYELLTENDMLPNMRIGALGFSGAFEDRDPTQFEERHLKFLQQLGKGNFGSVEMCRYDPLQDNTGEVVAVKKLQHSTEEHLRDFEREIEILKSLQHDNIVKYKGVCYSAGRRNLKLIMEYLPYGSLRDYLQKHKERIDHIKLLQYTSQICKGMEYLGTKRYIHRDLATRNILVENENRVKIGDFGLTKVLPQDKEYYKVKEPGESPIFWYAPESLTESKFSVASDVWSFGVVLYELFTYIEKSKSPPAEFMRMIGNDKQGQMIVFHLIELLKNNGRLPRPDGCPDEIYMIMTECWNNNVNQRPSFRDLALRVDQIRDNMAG
T1 sequence (P23458 whole entry): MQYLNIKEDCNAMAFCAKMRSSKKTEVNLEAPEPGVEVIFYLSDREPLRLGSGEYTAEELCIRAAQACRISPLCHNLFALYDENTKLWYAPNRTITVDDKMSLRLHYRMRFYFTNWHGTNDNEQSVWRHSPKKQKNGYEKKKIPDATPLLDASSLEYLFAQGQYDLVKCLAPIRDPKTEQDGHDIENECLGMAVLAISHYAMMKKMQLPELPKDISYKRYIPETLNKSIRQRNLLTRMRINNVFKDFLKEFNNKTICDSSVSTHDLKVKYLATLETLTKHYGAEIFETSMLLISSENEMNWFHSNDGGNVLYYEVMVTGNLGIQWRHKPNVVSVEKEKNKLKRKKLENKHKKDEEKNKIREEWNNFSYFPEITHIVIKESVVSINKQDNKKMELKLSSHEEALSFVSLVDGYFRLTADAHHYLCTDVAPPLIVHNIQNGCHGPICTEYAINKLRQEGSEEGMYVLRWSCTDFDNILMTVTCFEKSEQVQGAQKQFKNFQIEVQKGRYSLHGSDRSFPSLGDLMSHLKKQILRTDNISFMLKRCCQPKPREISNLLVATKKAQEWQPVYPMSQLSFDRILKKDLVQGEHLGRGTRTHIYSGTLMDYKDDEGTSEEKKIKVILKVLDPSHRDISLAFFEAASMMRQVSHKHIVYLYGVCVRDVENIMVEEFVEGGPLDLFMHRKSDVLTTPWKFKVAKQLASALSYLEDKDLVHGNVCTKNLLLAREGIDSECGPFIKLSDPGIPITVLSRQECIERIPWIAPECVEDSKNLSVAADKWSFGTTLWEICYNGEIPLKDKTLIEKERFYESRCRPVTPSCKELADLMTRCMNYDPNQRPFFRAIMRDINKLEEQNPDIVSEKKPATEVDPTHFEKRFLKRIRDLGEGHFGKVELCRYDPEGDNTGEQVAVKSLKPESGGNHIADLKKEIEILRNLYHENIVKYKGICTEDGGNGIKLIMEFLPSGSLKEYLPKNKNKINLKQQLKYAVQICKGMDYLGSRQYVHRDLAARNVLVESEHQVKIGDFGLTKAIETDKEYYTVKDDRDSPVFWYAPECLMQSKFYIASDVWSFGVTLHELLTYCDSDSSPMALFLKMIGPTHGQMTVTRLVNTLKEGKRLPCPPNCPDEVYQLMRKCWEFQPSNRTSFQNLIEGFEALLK
Chain of Non-receptor tyrosine-protein kinase TYK2 (P29597 whole entry): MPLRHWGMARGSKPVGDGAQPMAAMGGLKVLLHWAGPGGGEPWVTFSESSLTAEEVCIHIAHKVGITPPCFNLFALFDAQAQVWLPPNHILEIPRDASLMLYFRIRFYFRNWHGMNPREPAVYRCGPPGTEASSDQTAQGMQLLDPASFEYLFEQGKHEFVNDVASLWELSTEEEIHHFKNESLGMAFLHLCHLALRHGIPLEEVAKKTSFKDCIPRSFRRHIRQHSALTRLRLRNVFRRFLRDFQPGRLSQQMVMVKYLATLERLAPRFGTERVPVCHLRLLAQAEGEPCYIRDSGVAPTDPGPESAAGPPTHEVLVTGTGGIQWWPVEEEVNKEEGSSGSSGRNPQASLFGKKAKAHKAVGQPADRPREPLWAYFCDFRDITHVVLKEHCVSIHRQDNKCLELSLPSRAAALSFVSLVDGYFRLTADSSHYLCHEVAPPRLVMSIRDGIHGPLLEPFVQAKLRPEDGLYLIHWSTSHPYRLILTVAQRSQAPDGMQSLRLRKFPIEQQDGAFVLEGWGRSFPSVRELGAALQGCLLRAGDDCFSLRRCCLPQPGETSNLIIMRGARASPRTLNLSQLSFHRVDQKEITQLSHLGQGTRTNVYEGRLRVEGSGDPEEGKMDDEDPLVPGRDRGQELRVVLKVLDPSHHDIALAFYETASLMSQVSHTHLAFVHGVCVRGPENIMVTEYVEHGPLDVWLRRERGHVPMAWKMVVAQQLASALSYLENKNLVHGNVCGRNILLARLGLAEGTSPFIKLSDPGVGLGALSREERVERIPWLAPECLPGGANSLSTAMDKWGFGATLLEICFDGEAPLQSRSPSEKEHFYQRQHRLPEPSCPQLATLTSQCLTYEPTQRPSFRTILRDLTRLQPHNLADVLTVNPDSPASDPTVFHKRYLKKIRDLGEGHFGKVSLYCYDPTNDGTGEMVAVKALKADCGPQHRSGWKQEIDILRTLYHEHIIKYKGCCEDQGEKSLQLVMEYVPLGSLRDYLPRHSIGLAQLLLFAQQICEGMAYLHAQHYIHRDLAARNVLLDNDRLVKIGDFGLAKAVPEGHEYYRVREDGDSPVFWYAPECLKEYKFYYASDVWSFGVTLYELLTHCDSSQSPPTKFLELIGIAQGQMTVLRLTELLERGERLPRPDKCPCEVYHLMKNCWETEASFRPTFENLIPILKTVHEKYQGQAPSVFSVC
Chain of Histone deacetylase 3 (O15379 whole entry): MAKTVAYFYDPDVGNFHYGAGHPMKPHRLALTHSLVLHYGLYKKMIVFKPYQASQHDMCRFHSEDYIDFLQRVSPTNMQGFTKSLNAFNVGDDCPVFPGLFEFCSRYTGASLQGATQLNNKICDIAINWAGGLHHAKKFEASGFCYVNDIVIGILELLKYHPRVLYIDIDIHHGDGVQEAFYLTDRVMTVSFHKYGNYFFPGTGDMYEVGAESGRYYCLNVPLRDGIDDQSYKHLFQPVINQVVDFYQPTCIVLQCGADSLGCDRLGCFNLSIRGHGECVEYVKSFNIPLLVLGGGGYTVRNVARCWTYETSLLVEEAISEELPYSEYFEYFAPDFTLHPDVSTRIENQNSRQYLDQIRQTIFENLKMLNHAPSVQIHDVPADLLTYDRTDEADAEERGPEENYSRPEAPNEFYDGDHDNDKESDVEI
Chain of Activated CDC42 kinase 1 (Homo sapiens) (Q07912 whole entry, looked up): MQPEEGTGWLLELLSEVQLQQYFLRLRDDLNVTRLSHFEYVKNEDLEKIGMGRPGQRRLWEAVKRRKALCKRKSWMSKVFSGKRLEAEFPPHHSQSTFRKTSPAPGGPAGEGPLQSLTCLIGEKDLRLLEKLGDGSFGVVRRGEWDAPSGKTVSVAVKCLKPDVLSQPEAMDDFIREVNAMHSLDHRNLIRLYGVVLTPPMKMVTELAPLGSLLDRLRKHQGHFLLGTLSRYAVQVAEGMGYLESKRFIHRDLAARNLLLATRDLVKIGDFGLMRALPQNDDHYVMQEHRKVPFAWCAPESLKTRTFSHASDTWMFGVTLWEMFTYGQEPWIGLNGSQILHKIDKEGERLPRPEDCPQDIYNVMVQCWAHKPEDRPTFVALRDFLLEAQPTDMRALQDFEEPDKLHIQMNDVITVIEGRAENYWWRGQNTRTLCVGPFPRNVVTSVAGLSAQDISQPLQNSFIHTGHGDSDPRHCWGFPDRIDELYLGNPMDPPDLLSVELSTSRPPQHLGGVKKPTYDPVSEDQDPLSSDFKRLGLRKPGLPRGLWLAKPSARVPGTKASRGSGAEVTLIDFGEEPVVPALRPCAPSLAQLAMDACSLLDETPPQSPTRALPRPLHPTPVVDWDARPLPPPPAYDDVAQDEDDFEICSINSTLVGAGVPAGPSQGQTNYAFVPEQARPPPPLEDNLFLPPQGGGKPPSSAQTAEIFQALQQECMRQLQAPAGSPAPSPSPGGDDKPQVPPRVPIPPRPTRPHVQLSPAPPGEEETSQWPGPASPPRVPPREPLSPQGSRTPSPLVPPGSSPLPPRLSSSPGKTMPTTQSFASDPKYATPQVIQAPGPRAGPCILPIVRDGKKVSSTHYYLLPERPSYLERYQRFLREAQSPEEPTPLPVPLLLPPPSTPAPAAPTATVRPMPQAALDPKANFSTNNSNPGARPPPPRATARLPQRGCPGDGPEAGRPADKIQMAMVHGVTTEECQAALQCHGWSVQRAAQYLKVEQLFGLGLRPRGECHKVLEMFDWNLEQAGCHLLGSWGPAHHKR

An IC50 [1] of 3960 nM, an IC50 [2] of 2520 nM and an IC50 [3] of 4220 nM were found for `Cc1cnc(Nc2ccc(OCCCCCC(=O)NO)cc2)nc1Nc1cccc(S(=O)(=O)NC(C)(C)C)c1` in this work. For the same compound, the IC50 [4] was 2760 nM, the IC50 [5] was 3220 nM and the IC50 [6] was 2580 nM. The IC50 [7] was 2330 nM.
An IC50 [1] of 11500 nM, an IC50 [2] of 810 nM and an IC50 [3] of 4700 nM were found for `Cc1cnc(Nc2ccc(OCCCCCCC(=O)NO)c(Cl)c2)nc1Nc1cccc(S(=O)(=O)NC(C)(C)C)c1` in this work. It also gave an IC50 [4] of 4060 nM, an IC50 [5] of 6060 nM and an IC50 [6] of 7130 nM. The IC50 [7] was 1430 nM.
An IC50 [1] greater than 50000 nM, an IC50 [2] of 1730 nM and an IC50 [3] of 8850 nM were found for `Cc1cc(Nc2ncc(C)c(Nc3cccc(S(=O)(=O)NC(C)(C)C)c3)n2)ccc1OCCCCCCC(=O)NO` in this work. The IC50 [4] was 4920 nM, the IC50 [5] was 8930 nM and the IC50 [6] was 4910 nM. It also gave an IC50 [7] of 3080 nM.
An IC50 [1] of 10900 nM, an IC50 [2] of 1660 nM and an IC50 [3] of 7160 nM were found for `Cc1cnc(Nc2ccc(OCCCCCCCC(=O)NO)cc2)nc1Nc1cccc(S(=O)(=O)NC(C)(C)C)c1` in this work. It also gave an IC50 [4] of 4940 nM, an IC50 [5] of 9060 nM and an IC50 [6] of 6500 nM. The IC50 [7] was 2950 nM.
An IC50 [1] of 7480 nM, an IC50 [2] of 1080 nM and an IC50 [3] of 5900 nM were found for `Cc1cnc(Nc2ccc(OCCCCCCC(=O)NO)c(C(F)(F)F)c2)nc1Nc1cccc(S(=O)(=O)NC(C)(C)C)c1` in this work. For the same compound, the IC50 [4] was 4870 nM, the IC50 [5] was 8720 nM and the IC50 [6] was 11100 nM. The IC50 [7] was 2240 nM.
An IC50 [8] greater than 10000 nM, an inhibition [9] of 80% and a half-life at 24 h [10] of 6.72 min were found for `Cc1cnc(Nc2ccc(OCCCCCCC(=O)NO)c(F)c2)nc1Nc1cccc(S(=O)(=O)NC(C)(C)C)c1` in this work. For the same compound, the Vd at 24 h [11] was 0.951 L/kg, the half-life at 24 h [12] was 1.81 h and the CL/F at 24 h [13] was 98.3 mL/min/kg. The IC50 [1] was 3250 nM, the inhibition [14] was 80% and the AUC(0-t) at 24 h [15] was 508 ng·h/mL. It also gave an IC50 [16] of 6.98 nM, an IC50 [2] of 240 nM and an IC50 [17] of 954 nM. It also gave an AUC(0-t) at 22 h [18] of 169000 ng·h/mL, a Cmax at 24 h [19] of 79.1 ng/mL and an inhibition [20] of 70%. For the same compound, the IC50 [3] was 1220 nM, the IC50 [21] was 299 nM and the IC50 [22] was 0.43 nM. The IC50 [4] was 3040 nM, the IC50 [23] was 780 nM and the Vd [24] was 15.411 L/kg. The IC50 [25] was 0.2 nM, the AUC(0-t) at 24 h [26] was 549 ng·h/mL and the IC50 [5] was 1980 nM. The IC50 [27] was greater than 10000 nM, the IC50 [6] was 3370 nM and the bioavailability at 24 h [28] was 21.6%. For the same compound, the IC50 [29] was greater than 10000 nM, the IC50 [30] was 73.9 nM and the IC50 [31] was 127 nM. For the same compound, the MRT at 24 h [32] was 5.11 h, the IC50 [33] was 931 nM and the clearance at 24 h [34] was 98.3 mL/min/kg. It also gave an IC50 [7] of 1270 nM, an IC50 [35] of 41 nM and an MRT at 24 h [36] of 0.161 h. The IC50 [37] was greater than 10000 nM, the inhibition [38] was 80% and the IC50 [39] was greater than 10000 nM. For the same compound, the half-life at 22 h [40] was 8.49 h and the Tmax at 24 h [41] was 2.55 h.
An IC50 [1] of 7270 nM, an IC50 [2] of 1650 nM and an IC50 [3] of 5490 nM were found for `COc1cc(Nc2ncc(C)c(Nc3cccc(S(=O)(=O)NC(C)(C)C)c3)n2)ccc1OCCCCCCC(=O)NO` in this work. The IC50 [4] was 3670 nM, the IC50 [5] was 4680 nM and the IC50 [6] was 4410 nM. For the same compound, the IC50 [7] was 1490 nM.
An IC50 [8] greater than 10000 nM, an inhibition [9] of 70% and a half-life at 24 h [10] of 7.68 min were found for `Cc1cnc(Nc2ccc(OCCCCCCC(=O)NO)cc2)nc1Nc1cccc(S(=O)(=O)NC(C)(C)C)c1` in this work. For the same compound, the Vd at 24 h [11] was 0.845 L/kg, the half-life at 24 h [12] was 2.08 h and the CL/F at 24 h [13] was 76 mL/min/kg. It also gave an IC50 [1] of 2880 nM, an inhibition [14] of 80% and an AUC(0-t) at 24 h [15] of 656 ng·h/mL. The IC50 [16] was 4.44 nM, the IC50 [2] was 330 nM and the IC50 [17] was 595 nM. For the same compound, the AUC(0-t) at 22 h [18] was 217000 ng·h/mL, the Cmax at 24 h [19] was 93.3 ng/mL and the inhibition [20] was 70%. It also gave an IC50 [3] of 1870 nM, an IC50 [21] of 303 nM and an IC50 [22] of 0.34 nM. It also gave an IC50 [4] of 2520 nM, an IC50 [23] of 414 nM and a Vd [24] of 13.708 L/kg. For the same compound, the IC50 [25] was 0.17 nM, the AUC(0-t) at 24 h [26] was 745 ng·h/mL and the IC50 [5] was 1830 nM. For the same compound, the IC50 [27] was greater than 10000 nM, the IC50 [6] was 2580 nM and the bioavailability at 24 h [28] was 22.7%. For the same compound, the IC50 [29] was greater than 10000 nM, the IC50 [30] was 58.7 nM and the IC50 [31] was 116 nM. The inhibition [42] was greater than 95%, the MRT at 24 h [32] was 6.02 h and the IC50 [33] was 724 nM. It also gave a clearance at 24 h [34] of 76.2 mL/min/kg, an IC50 [7] of 730 nM and an IC50 [35] of 27.1 nM. The MRT at 24 h [36] was 0.185 h, the IC50 [37] was greater than 10000 nM and the inhibition [38] was greater than 95%. It also gave an IC50 [39] greater than 10000 nM, a half-life at 22 h [40] of 11.1 h and a Tmax at 24 h [41] of 2.91 h.
An IC50 [1] of 5100 nM, an IC50 [2] of 2440 nM and an IC50 [3] of 3450 nM were found for `Cc1cnc(Nc2ccc(OCCCCCC(=O)NO)c(C(F)(F)F)c2)nc1Nc1cccc(S(=O)(=O)NC(C)(C)C)c1` in this work. It also gave an IC50 [4] of 2870 nM, an IC50 [5] of 2930 nM and an IC50 [6] of 6850 nM. The IC50 [7] was 2910 nM.
An IC50 [43] of 4.33 nM was found for `Cc1cnc(Nc2ccc(OCC(=O)NO)cc2)nc1Nc1cccc(S(=O)(=O)NC(C)(C)C)c1` in this work.
An IC50 [1] of 11900 nM, an IC50 [2] of 730 nM and an IC50 [3] of 2070 nM were found for `Cc1cnc(Nc2ccc(OCCCCCCC(=O)NO)c(Br)c2)nc1Nc1cccc(S(=O)(=O)NC(C)(C)C)c1` in this work. The IC50 [4] was 3870 nM, the IC50 [5] was 6950 nM and the IC50 [6] was 12000 nM. It also gave an IC50 [7] of 2160 nM.
An IC50 [43] of 12.3 nM was found for `Cc1cnc(Nc2ccc(OCCCC(=O)NO)cc2)nc1Nc1cccc(S(=O)(=O)NC(C)(C)C)c1` in this work.
An IC50 [1] of 7230 nM, an IC50 [2] of 1270 nM and an IC50 [3] of 4370 nM were found for `Cc1cnc(Nc2ccc(OCCCCCC(=O)NO)c(Cl)c2)nc1Nc1cccc(S(=O)(=O)NC(C)(C)C)c1` in this work. The IC50 [4] was 6290 nM, the IC50 [5] was 4840 nM and the IC50 [6] was 6700 nM. It also gave an IC50 [7] of 2030 nM.
